Test results as given in US8574563B2 (Bristol-Myers Squibb Company, priority 2006, dated 2013).

Test system: HCV 1b-377-neo replicon cells
Assay: HCV replicon assay, HCV 1b-377-neo replicon cells (1b FRET)
Format: cell-based, Hepatitis C virus genotype 1b
Conditions: HCV 1b-377-neo replicon cells; HCV 1b genotype
In short: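 Compounds tested in HCV genotype 1b-377-neo replicon cells with a FRET read-out. Cells resistant to a reference NS5A inhibitor through a Y2065H NS5A mutation were run alongside wild-type cells.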

In the case of `COC(=O)N[C@H](C(=O)N1CCC[C@H]1c1ncc(-c2ccc(-c3ccc(-c4cnc([C@@H]5CCCN5C(=O)[C@@H](NC(=O)OC)C(C)C)[nH]4)cc3C(=O)O)cc2)[nH]1)C(C)C` [Example M114, 4,4′-bis(2-((2S)-1-(N-(methoxycarbonyl)-L-valyl)-2-pyrrolidinyl)-1H-imidazol-5-yl)-2-biphenylcarboxylic acid], the “EC50 range against HCV 1b (Table 2, Range)” value is reported as “>A”.

Same assay, conditions: Hepatitis C virus, HCV 1b-377-neo replicon cells; HCV 1b genotype; read-out: EC50 range against HCV 1b (Table 2, Range)

Compared with `COC(=O)N[C@H](C(=O)N1CCC[C@H]1c1ncc(-c2ccc(-c3ccc(-c4cnc([C@@H]5CCCN5C(=O)[C@H](NC5=NCCN5)C(C)C)[nH]4)cc3)cc2)[nH]1)C(C)C` [cj-11n, methyl ((1S)-1-(((2S)-2-(5-(4′-(2-((2S)-1-(N-(4,5-dihydro-1H-imidazol-2-yl)-D-valyl)-2-pyrrolidinyl)-1H-imidazol-5-yl)-4-biphenylyl)-1H-imidazol-2-yl)-1-pyrrolidinyl)carbonyl)-2-methylpropyl)carbamate], `COC(=O)N[C@H](C(=O)N1CCC[C@H]1c1ncc(-c2ccc(-c3ccc(-c4cnc([C@@H]5CCCN5C(=O)[C@@H](Nc5cncnc5)C(C)C)[nH]4)cc3)cc2)[nH]1)C(C)C` [cj-20d, methyl ((1S)-2-methyl-1-(((2S)-2-(5-(4′-(2-((2S)-1-(N-5-pyrimidinyl-L-valyl)-2-pyrrolidinyl)-1H-imidazol-5-yl)-4-biphenylyl)-1H-imidazol-2-yl)-1-pyrrolidinyl)carbonyl)propyl)carbamate] is lower in EC50: 1 to 99 nM for the first, 0.001 to 0.999 nM for the second. The second is the more potent here.

`COC(=O)N[C@@H](C)C(=O)N1CCC[C@H]1c1nc(-c2cnc(-c3ccc(-c4cnc([C@@H]5CCCN5C(=O)[C@H](C)NC(=O)OC)[nH]4)cc3)nc2)c[nH]1` [Example D73, methyl ((1S)-2-((2S)-2-(5-(4-(5-(2-((2S)-1-(N-(methoxycarbonyl)-L-alanyl)-2-pyrrolidinyl)-1H-imidazol-5-yl)-2-pyrimidinyl)phenyl)-1H-imidazol-2-yl)-1-pyrrolidinyl)-1-methyl-2-oxoethyl)carbamate] and `COC(=O)N[C@@H](C(=O)N1CCC[C@H]1c1ncc(-c2ccc(-c3ccc(-c4[nH]c([C@@H]5CCCN5C(=O)[C@H](NC(=O)OC)c5ccccc5)nc4C(=O)OCc4ccccc4)cc3)cc2)[nH]1)c1ccccc1` [Example J21, benzyl 2-((2S)-1-((2R)-2-((methoxycarbonyl)amino)-2-phenylacetyl)-2-pyrrolidinyl)-5-(4′-(2-((2S)-1-((2R)-2-((methoxycarbonyl)amino)-2-phenylacetyl)-2-pyrrolidinyl)-1H-imidazol-5-yl)-4-biphenylyl)-1H-imidazole-4-carboxylate] fall in the same range of EC50: 0.001 to 0.999 nM for the first, 0.001 to 0.999 nM for the second.

`CCN(C)[C@@H](C(=O)N1CCC[C@H]1c1ncc(-c2ccc(-c3ccc(-c4cnc([C@@H]5CCCN5C(=O)[C@@H]5CCCO5)[nH]4)cc3)cc2)[nH]1)c1ccccc1` [Example 107, (1R)-N-ethyl-N-methyl-2-oxo-1-phenyl-2-((2S)-2-(5-(4′-(2-((2S)-1-((2S)-tetrahydro-2-furanylcarbonyl)-2-pyrrolidinyl)-1H-imidazol-5-yl)-4-biphenylyl)-1H-imidazol-2-yl)-1-pyrrolidinyl)ethanamine] and `COC(=O)N[C@@H](C(=O)N1CCC[C@H]1c1ncc(-c2ccc(-c3ccc(-c4cnc([C@@H]5CCCN5C(=O)C(c5ccccc5)c5ccccc5)[nH]4)cc3)cc2)[nH]1)c1ccccc1` [Example 84-38, methyl ((1R)-2-((2S)-2-(5-(4′-(2-((2S)-1-(diphenylacetyl)-2-pyrrolidinyl)-1H-imidazol-5-yl)-4-biphenylyl)-1H-imidazol-2-yl)-1-pyrrolidinyl)-2-oxo-1-phenylethyl)carbamate] fall in the same range of EC50: 0.001 to 0.999 nM for the first, 0.001 to 0.999 nM for the second.

`COC(=O)N[C@H](C(=O)N1[C@@H]2C[C@@H]2C[C@H]1c1ncc(-c2ccc(-c3ccc(-c4cnc([C@@H]5C[C@H]6C[C@H]6N5C(=O)CCCC[C@@H]5SC[C@@H]6NC(=O)N[C@@H]65)[nH]4)cc3)cc2)[nH]1)C(C)C` [Example M139] was tested, and the EC50 was 0.001 to 0.999 nM.
